System: 755483-174-R-J1-PDC complex spheroid growth, percent test/control
Assay: Anticancer human tumor 755483-174-R-J1-PDC patient-derived rhabdomyosarcoma cell line growth inhibition [Asc]
Settings: for IC50: curve of first compound; for viability, T/C: stronger effect = lower value
How it was run: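 Spheroid model: tumor line + HUVEC + hMSC. Single agents and combinations; top conc. at/near clinical Cmax (10 microM if undetermined), half-log dilutions. DMSO stocks at 800-fold test concentration.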

[1] = second compound 0.01 µM, first compound 0.00316 µM
[2] = second compound 0.01 µM, first compound 0.01 µM
[3] = second compound 0.01 µM, first compound 0.0316 µM
[4] = second compound 0.01 µM, first compound 0.1 µM
[5] = second compound 0.01 µM, first compound 0.316 µM
[6] = second compound 0.01 µM, first compound 1 µM
[7] = second compound 0.0316 µM, first compound 0.00316 µM
[8] = second compound 0.0316 µM, first compound 0.01 µM
[9] = second compound 0.0316 µM, first compound 0.0316 µM
[10] = second compound 0.0316 µM, first compound 0.1 µM
[11] = second compound 0.0316 µM, first compound 0.316 µM
[12] = second compound 0.0316 µM, first compound 1 µM
[13] = second compound 0.1 µM, first compound 0.00316 µM
[14] = second compound 0.1 µM, first compound 0.01 µM
[15] = second compound 0.1 µM, first compound 0.0316 µM
[16] = second compound 0.1 µM, first compound 0.1 µM
[17] = second compound 0.1 µM, first compound 0.316 µM
[18] = second compound 0.1 µM, first compound 1 µM
[19] = second compound 0.316 µM, first compound 0.00316 µM
[20] = second compound 0.316 µM, first compound 0.01 µM
[21] = second compound 0.316 µM, first compound 0.0316 µM
[22] = second compound 0.316 µM, first compound 0.1 µM
[23] = second compound 0.316 µM, first compound 0.316 µM
[24] = second compound 0.316 µM, first compound 1 µM
[25] = second compound 1 µM, first compound 0.00316 µM
[26] = second compound 1 µM, first compound 0.01 µM
[27] = second compound 1 µM, first compound 0.0316 µM
[28] = second compound 1 µM, first compound 0.1 µM
[29] = second compound 1 µM, first compound 0.316 µM
[30] = second compound 1 µM, first compound 1 µM
[31] = second compound 0.01 µM, first compound 0.000316 µM
[32] = second compound 0.01 µM, first compound 0.001 µM
[33] = second compound 0.0316 µM, first compound 0.000316 µM
[34] = second compound 0.0316 µM, first compound 0.001 µM
[35] = second compound 0.1 µM, first compound 0.000316 µM
[36] = second compound 0.1 µM, first compound 0.001 µM
[37] = second compound 0.316 µM, first compound 0.000316 µM
[38] = second compound 0.316 µM, first compound 0.001 µM
[39] = second compound 1 µM, first compound 0.000316 µM
[40] = second compound 1 µM, first compound 0.001 µM
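Further: spheroids exposed to compounds for seven days before readout.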

SMILES: CCN1CCN(Cc2ccc(Nc3ncc(F)c(-c4cc(F)c5nc(C)n(C(C)C)c5c4)n3)nc2)CC1 + CNC(C)C(=O)NC1CN(S(=O)(=O)c2cccc(S(=O)(=O)N3CCC4CCC(C(=O)NC(c5ccccc5)c5ccccc5)N4C(=O)C(NC(=O)C(C)NC)C3)c2)CCC2CCC(C(=O)NC(c3ccccc3)c3ccccc3)N2C1=O
- IC50 (second compound 0.01 µM): < 3.16 nM
- IC50 (second compound 0.0316 µM): < 3.16 nM
- IC50 (second compound 0.1 µM): > 1000 nM
- IC50 (second compound 0.316 µM): < 3.16 nM
- IC50 (second compound 1 µM): < 3.16 nM
- viability, T/C [1]: 31.1%
- viability, T/C [2]: 66%
- viability, T/C [3]: 53.4%
- viability, T/C [4]: 54.2%
- viability, T/C [5]: 61%
- viability, T/C [6]: 74.4%
- viability, T/C [7]: 43.8%
- viability, T/C [8]: 33.8%
- viability, T/C [9]: 40.6%
- viability, T/C [10]: 40.5%
- viability, T/C [11]: 63.8%
- viability, T/C [12]: 69.5%
- viability, T/C [13]: 58.5%
- viability, T/C [14]: 37.7%
- viability, T/C [15]: 55.4%
- viability, T/C [16]: 59.5%
- viability, T/C [17]: 47.8%
- viability, T/C [18]: 57.5%
- viability, T/C [19]: 16.2%
- viability, T/C [20]: 37.3%
- viability, T/C [21]: 40.9%
- viability, T/C [22]: 31%
- viability, T/C [23]: 47.5%
- viability, T/C [24]: 39.9%
- viability, T/C [25]: 32.1%
- viability, T/C [26]: 18.2%
- viability, T/C [27]: 26.8%
- viability, T/C [28]: 18.6%
- viability, T/C [29]: 26.1%
- viability, T/C [30]: 32.3%

SMILES: Cn1ncnc1[C@H]1c2n[nH]c(=O)c3cc(F)cc(c23)N[C@@H]1c1ccc(F)cc1 + CNC(C)C(=O)NC1CN(S(=O)(=O)c2cccc(S(=O)(=O)N3CCC4CCC(C(=O)NC(c5ccccc5)c5ccccc5)N4C(=O)C(NC(=O)C(C)NC)C3)c2)CCC2CCC(C(=O)NC(c3ccccc3)c3ccccc3)N2C1=O
- IC50 (second compound 0.01 µM): < 0.316 nM
- IC50 (second compound 0.0316 µM): < 0.316 nM
- IC50 (second compound 0.1 µM): < 0.316 nM
- IC50 (second compound 0.316 µM): < 0.316 nM
- IC50 (second compound 1 µM): < 0.316 nM
- viability, T/C [31]: 39.3%
- viability, T/C [32]: 45.2%
- viability, T/C [1]: 45.5%
- viability, T/C [2]: 30.9%
- viability, T/C [3]: 26.4%
- viability, T/C [4]: 18.1%
- viability, T/C [33]: 36.2%
- viability, T/C [34]: 42.9%
- viability, T/C [7]: 33.4%
- viability, T/C [8]: 16.2%
- viability, T/C [9]: 18.1%
- viability, T/C [10]: 12.7%
- viability, T/C [35]: 26.2%
- viability, T/C [36]: 33.2%
- viability, T/C [13]: 25.4%
- viability, T/C [14]: 14.4%
- viability, T/C [15]: 13.7%
- viability, T/C [16]: 9.96%
- viability, T/C [37]: 31.5%
- viability, T/C [38]: 23.6%
- viability, T/C [19]: 17.2%
- viability, T/C [20]: 14.7%
- viability, T/C [21]: 6.84%
- viability, T/C [22]: 9.04%
- viability, T/C [39]: 13.7%
- viability, T/C [40]: 19.7%
- viability, T/C [25]: 9.69%
- viability, T/C [26]: 9.82%
- viability, T/C [27]: 9.01%
- viability, T/C [28]: 7.46%

SMILES: NC(=O)C(=Cn1cnc(-c2cc(C(F)(F)F)cc(C(F)(F)F)c2)n1)c1cncnc1 + CNC(C)C(=O)NC1CN(S(=O)(=O)c2cccc(S(=O)(=O)N3CCC4CCC(C(=O)NC(c5ccccc5)c5ccccc5)N4C(=O)C(NC(=O)C(C)NC)C3)c2)CCC2CCC(C(=O)NC(c3ccccc3)c3ccccc3)N2C1=O
- IC50 (second compound 0.01 µM): 2.6 nM
- IC50 (second compound 0.0316 µM): 1.67 nM
- IC50 (second compound 0.1 µM): < 0.949 nM
- IC50 (second compound 0.316 µM): < 0.949 nM
- IC50 (second compound 1 µM): < 0.949 nM
- viability, T/C (second compound 0.01 µM, first compound 0.000949 µM): 73.8%
- viability, T/C (second compound 0.01 µM, first compound 0.003 µM): 46.7%
- viability, T/C (second compound 0.01 µM, first compound 0.00949 µM): 15.2%
- viability, T/C (second compound 0.01 µM, first compound 0.03 µM): 5.78%
- viability, T/C (second compound 0.01 µM, first compound 0.0949 µM): 4.79%
- viability, T/C (second compound 0.01 µM, first compound 0.3 µM): 3.74%
- viability, T/C (second compound 0.0316 µM, first compound 0.000949 µM): 63.4%
- viability, T/C (second compound 0.0316 µM, first compound 0.003 µM): 36.2%
- viability, T/C (second compound 0.0316 µM, first compound 0.00949 µM): 13.5%
- viability, T/C (second compound 0.0316 µM, first compound 0.03 µM): 6.2%
- viability, T/C (second compound 0.0316 µM, first compound 0.0949 µM): 6.42%
- viability, T/C (second compound 0.0316 µM, first compound 0.3 µM): 22%
- viability, T/C (second compound 0.1 µM, first compound 0.000949 µM): 41.2%
- viability, T/C (second compound 0.1 µM, first compound 0.003 µM): 35.9%
- viability, T/C (second compound 0.1 µM, first compound 0.00949 µM): 7.59%
- viability, T/C (second compound 0.1 µM, first compound 0.03 µM): 6.43%
- viability, T/C (second compound 0.1 µM, first compound 0.0949 µM): 4.59%
- viability, T/C (second compound 0.1 µM, first compound 0.3 µM): 3.8%
- viability, T/C (second compound 0.316 µM, first compound 0.000949 µM): 26.7%
- viability, T/C (second compound 0.316 µM, first compound 0.003 µM): 21%
- viability, T/C (second compound 0.316 µM, first compound 0.00949 µM): 22%
- viability, T/C (second compound 0.316 µM, first compound 0.03 µM): 4.35%
- viability, T/C (second compound 0.316 µM, first compound 0.0949 µM): 26.3%
- viability, T/C (second compound 0.316 µM, first compound 0.3 µM): 2.93%
- viability, T/C (second compound 1 µM, first compound 0.000949 µM): 28.7%
- viability, T/C (second compound 1 µM, first compound 0.003 µM): 17.9%
- viability, T/C (second compound 1 µM, first compound 0.00949 µM): 22.5%
- viability, T/C (second compound 1 µM, first compound 0.03 µM): 2.28%
- viability, T/C (second compound 1 µM, first compound 0.0949 µM): 3.49%
- viability, T/C (second compound 1 µM, first compound 0.3 µM): 1.7%

SMILES: NC1CCC(NC2CC2c2ccccc2)CC1 (stereo not given) + CNC(C)C(=O)NC1CN(S(=O)(=O)c2cccc(S(=O)(=O)N3CCC4CCC(C(=O)NC(c5ccccc5)c5ccccc5)N4C(=O)C(NC(=O)C(C)NC)C3)c2)CCC2CCC(C(=O)NC(c3ccccc3)c3ccccc3)N2C1=O
- IC50 (second compound 0.01 µM): < 0.316 nM
- IC50 (second compound 0.0316 µM): < 0.316 nM
- IC50 (second compound 0.1 µM): < 0.316 nM
- IC50 (second compound 0.316 µM): < 0.316 nM
- IC50 (second compound 1 µM): < 0.316 nM
- viability, T/C [31]: 27.4%
- viability, T/C [32]: 38.9%
- viability, T/C [1]: 36.8%
- viability, T/C [2]: 48.5%
- viability, T/C [3]: 50.3%
- viability, T/C [4]: 45.1%
- viability, T/C [33]: 36.4%
- viability, T/C [34]: 24.9%
- viability, T/C [7]: 31.8%
- viability, T/C [8]: 37.5%
- viability, T/C [9]: 28.9%
- viability, T/C [10]: 30%
- viability, T/C [35]: 32.6%
- viability, T/C [36]: 27.7%
- viability, T/C [13]: 33.4%
- viability, T/C [14]: 31.4%
- viability, T/C [15]: 45.8%
- viability, T/C [16]: 28.4%
- viability, T/C [37]: 26.7%
- viability, T/C [38]: 33.6%
- viability, T/C [19]: 37.8%
- viability, T/C [20]: 29.1%
- viability, T/C [21]: 21.3%
- viability, T/C [22]: 29.5%
- viability, T/C [39]: 25.9%
- viability, T/C [40]: 8.86%
- viability, T/C [25]: 23.5%
- viability, T/C [26]: 20%
- viability, T/C [27]: 21.7%
- viability, T/C [28]: 25.7%

SMILES: O=C(c1ccc(F)c(F)c1Nc1ccc(I)cc1F)N1CC(O)([C@@H]2CCCCN2)C1 + CNC(C)C(=O)NC1CN(S(=O)(=O)c2cccc(S(=O)(=O)N3CCC4CCC(C(=O)NC(c5ccccc5)c5ccccc5)N4C(=O)C(NC(=O)C(C)NC)C3)c2)CCC2CCC(C(=O)NC(c3ccccc3)c3ccccc3)N2C1=O
- IC50 (second compound 0.01 µM): 92.3 nM
- IC50 (second compound 0.0316 µM): 27.7 nM
- IC50 (second compound 0.1 µM): < 3.16 nM
- IC50 (second compound 0.316 µM): < 3.16 nM
- IC50 (second compound 1 µM): < 3.16 nM
- viability, T/C [1]: 49.5%
- viability, T/C [2]: 56.7%
- viability, T/C [3]: 51.5%
- viability, T/C [4]: 49.9%
- viability, T/C [5]: 29.4%
- viability, T/C [6]: 23.4%
- viability, T/C [7]: 56.5%
- viability, T/C [8]: 62.9%
- viability, T/C [9]: 36.2%
- viability, T/C [10]: 47.8%
- viability, T/C [11]: 41.7%
- viability, T/C [12]: 25.1%
- viability, T/C [13]: 38.5%
- viability, T/C [14]: 44.7%
- viability, T/C [15]: 38.6%
- viability, T/C [16]: 40.3%
- viability, T/C [17]: 23.1%
- viability, T/C [18]: 8.23%
- viability, T/C [19]: 35%
- viability, T/C [20]: 25.6%
- viability, T/C [21]: 56%
- viability, T/C [22]: 31.4%
- viability, T/C [23]: 20.5%
- viability, T/C [24]: 11.3%
- viability, T/C [25]: 23.6%
- viability, T/C [26]: 24.4%
- viability, T/C [27]: 25.8%
- viability, T/C [28]: 30.4%
- viability, T/C [29]: 17.1%
- viability, T/C [30]: 4.97%

From PubChem BioAssay AID1963434 (Molecular Pharmacology Branch, DTP, NCI, 2024)
